Test results reported in patent publication US20100311036A1, “Methods for Augmentation of Cell Cryopreservation” (UNIVERSITY OF SOUTH CAROLINA, priority 2009, published 2010).

Legend:
R1 mouse ES cells [1] = experiment: immediate cell viability post cryopreservation (membrane integrity, live/dead assay); type: cell-based; conditions: post ultrafast vitrification in quartz microcapillary; 2 M PROH and/or 0.5 M extracellular trehalose; within 3 hr at day 0
Protocol: (§1) A novel ultrafast cooling (cooling rate >2×10^5° C./min) technique for ice-free cryopreservation (i.e., ultrafast vitrification) of mouse ES cells has been recently developed using quartz microcapillaries (180 μm in inner diameter and 10 μm in wall thickness in the working part). A comparison of the quartz microcapillary and the traditional French type plastic straw used for cell vitrification is given in FIG. 2. […]
(§2) The immediate cell viability post cryopreservation represented by membrane integrity was assessed using the standard live/dead assay kit of two fluorescent probes: calcein AM and ethidium homodimer (Invitrogen, Carlsbad, Calif.). Cells that excluded ethidium homodimer and retained the fluorescent calcein were counted as being viable. To check cell viability more than one day post cryopreservation, cell attachment evaluated at day 1 and proliferation/growth evaluated over a three-day observation period were also studied. […] The number of cells in at least 20 randomly selected representative fields under a 10× objective was counted every day for all the samples. Proliferation was assessed by normalizing the number of cells at day 3 and day 2 to that at day 1. Attachment efficiency (i.e., viability at day 1) was calculated as the ratio of the number of cells of a cryopreserved sample to that of the control non-frozen sample at day 1. […]

R1 mouse ES cells [2] = experiment: attachment efficiency (1 day viability) post cryopreservation; type: cell-based; conditions: post ultrafast vitrification in quartz microcapillary; 2 M PROH and/or 0.5 M extracellular trehalose; day 1, relative to non-frozen control
Protocol: as §1, §2

CC(O)CO (stereo not shown) [1,2-propanediol]
immediate cell viability (R1 mouse ES cells [1]): ~20%
1 day viability (attachment efficiency) (R1 mouse ES cells [2]): ~12%

OC[C@H]1O[C@H](O[C@H]2O[C@H](CO)[C@@H](O)[C@H](O)[C@H]2O)[C@H](O)[C@@H](O)[C@@H]1O [trehalose]
immediate cell viability (R1 mouse ES cells [1]): about 65%
1 day viability (attachment efficiency) (R1 mouse ES cells [2]): < 2%
